In ChEMBL document CHEMBL1154822, “Synthesis and antiproliferative activity of 7-azaindirubin-3'-oxime, a 7-aza isostere of the natural indirubin pharmacophore” (J Nat Prod, 2009):

Tests used:
HCC 2998 = assay: Cytotoxicity against human HCC2998 cells assessed as cell growth at 10 uM after 1 to 11 days by MTT assay; type: functional; conditions: read-out: Activity
ACHN [1] = assay: Cytotoxicity against human ACHN cells assessed as cell growth at 1 uM after 1 to 11 days by MTT assay; type: functional; conditions: read-out: Activity
SN12C = assay: Cytotoxicity against human SN12C cells assessed as cell growth at 0.1 uM after 1 to 11 days by MTT assay; type: functional; conditions: read-out: Activity
HL-60(TB) [2] = assay: Cytotoxicity against human HL-60(TB) cells assessed as cell growth at 10 uM after 1 to 11 days by MTT assay; type: functional; conditions: read-out: Activity
SW-620 = assay: Cytotoxicity against human SW620 cells after 1 to 11 days by MTT assay; type: functional
K562 = assay: Cytotoxicity against human K562 cells assessed as cell growth at 0.1 uM after 1 to 11 days by MTT assay; type: functional; conditions: read-out: Activity
IGROV-1 [3] = assay: Cytotoxicity against human IGROV1 cells assessed as cell growth at 0.1 uM after 1 to 11 days by MTT assay; type: functional; conditions: read-out: Activity
LOX IMVI [4] = assay: Cytotoxicity against human LOXIMVI cells assessed as cell growth at 1 uM after 1 to 11 days by MTT assay; type: functional; conditions: read-out: Activity
[5] = Cytotoxicity against human Hs 578T cells assessed as cell growth at 1 uM after 1 to 11 days by MTT assay; type: functional; conditions: read-out: Activity
SF-539 = assay: Cytotoxicity against human SF539 cells after 1 to 11 days by MTT assay; type: functional
OVCAR-3 [6] = assay: Cytotoxicity against human OVCAR-3 cells assessed as cell growth at 10 uM after 1 to 11 days by MTT assay; type: functional; conditions: read-out: Activity
[7] = molecular target: Glycogen synthase kinase-3 beta (Homo sapiens) (UniProt P49841); assay: Inhibition of human GSK3-beta at 3 uM after 40 mins by scintillation counting
Glycogen synthase kinase-3 beta (Homo sapiens), sequence (P49841 whole entry, looked up): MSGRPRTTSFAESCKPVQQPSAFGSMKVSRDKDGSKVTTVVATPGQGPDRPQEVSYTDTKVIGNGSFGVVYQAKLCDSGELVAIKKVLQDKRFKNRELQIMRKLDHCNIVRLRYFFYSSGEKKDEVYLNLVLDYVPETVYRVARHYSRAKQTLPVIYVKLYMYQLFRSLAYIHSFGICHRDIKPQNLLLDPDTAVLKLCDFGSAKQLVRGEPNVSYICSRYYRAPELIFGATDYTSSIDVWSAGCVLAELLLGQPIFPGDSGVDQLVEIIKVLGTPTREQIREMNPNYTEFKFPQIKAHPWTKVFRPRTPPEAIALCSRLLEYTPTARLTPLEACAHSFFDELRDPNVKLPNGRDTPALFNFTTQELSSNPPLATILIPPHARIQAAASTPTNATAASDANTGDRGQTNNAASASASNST

SK-MEL-5 = assay: Cytotoxicity against human SK-MEL-5 cells assessed as cell growth at 0.1 uM after 1 to 11 days by MTT assay; type: functional; conditions: read-out: Activity
PC-3 = assay: Cytotoxicity against human PC3 cells assessed as cell growth at 1 mM after 1 to 11 days by MTT assay; type: functional; conditions: read-out: Activity
SK-MEL-28 = assay: Cytotoxicity against human SK-MEL-28 cells after 1 to 11 days by MTT assay; type: functional
OVCAR-4 [8] = assay: Cytotoxicity against human OVCAR4 cells assessed as cell growth at 10 uM after 1 to 11 days by MTT assay; type: functional; conditions: read-out: Activity
HOP-62 = assay: Cytotoxicity against human HOP62 cells assessed as cell growth at 1 mM after 1 to 11 days by MTT assay; type: functional; conditions: read-out: Activity
NCI-H226 = assay: Cytotoxicity against human NCI-H226 cells after 1 to 11 days by MTT assay; type: functional
SNB-75 = assay: Cytotoxicity against human SNB75 cells assessed as cell growth at 100 uM after 1 to 11 days by MTT assay; type: functional; conditions: read-out: Activity
NCI/ADR-RES [9] = assay: Cytotoxicity against human NCI/ADR-RES cells after 1 to 11 days by MTT assay; type: functional
LOX IMVI [10] = assay: Cytotoxicity against human LOXIMVI cells assessed as cell growth at 10 uM after 1 to 11 days by MTT assay; type: functional; conditions: read-out: Activity
IGROV-1 [11] = assay: Cytotoxicity against human IGROV1 cells assessed as cell growth at 10 uM after 1 to 11 days by MTT assay; type: functional; conditions: read-out: Activity
MOLT-4 = assay: Cytotoxicity against human MOLT4 cells assessed as cell growth at 10 uM after 1 to 11 days by MTT assay; type: functional; conditions: read-out: Activity
OVCAR-8 = assay: Cytotoxicity against human OVCAR8 cells assessed as cell growth at 1 mM after 1 to 11 days by MTT assay; type: functional; conditions: read-out: Activity
IGROV-1 [12] = assay: Cytotoxicity against human IGROV1 cells assessed as cell growth at 100 uM after 1 to 11 days by MTT assay; type: functional; conditions: read-out: Activity
OVCAR-4 [13] = assay: Cytotoxicity against human OVCAR4 cells assessed as cell growth at 100 uM after 1 to 11 days by MTT assay; type: functional; conditions: read-out: Activity
OVCAR-5 = assay: Cytotoxicity against human OVCAR5 cells assessed as cell growth at 0.1 uM after 1 to 11 days by MTT assay; type: functional; conditions: read-out: Activity
SNB-19 = assay: Cytotoxicity against human SNB19 cells assessed as cell growth at 100 uM after 1 to 11 days by MTT assay; type: functional; conditions: read-out: Activity
OVCAR-3 [14] = assay: Cytotoxicity against human OVCAR-3 cells assessed as cell growth at 0.1 uM after 1 to 11 days by MTT assay; type: functional; conditions: read-out: Activity
RXF 393 = assay: Cytotoxicity against human […] cells assessed as cell growth at 0.1 uM after 1 to 11 days by MTT assay; type: functional; conditions: read-out: Activity
TK-10 [15] = assay: Cytotoxicity against human TK10 cells assessed as cell growth at 100 uM after 1 to 11 days by MTT assay; type: functional; conditions: read-out: Activity
ACHN [16] = assay: Cytotoxicity against human ACHN cells assessed as cell growth at 100 uM after 1 to 11 days by MTT assay; type: functional; conditions: read-out: Activity
A498 = assay: Cytotoxicity against human A498 cells assessed as cell growth at 10 uM after 1 to 11 days by MTT assay; type: functional; conditions: read-out: Activity
IGROV-1 [17] = assay: Cytotoxicity against human IGROV1 cells assessed as cell growth at 1 uM after 1 to 11 days by MTT assay; type: functional; conditions: read-out: Activity
OVCAR-3 [18] = assay: Cytotoxicity against human OVCAR-3 cells assessed as cell growth at 100 uM after 1 to 11 days by MTT assay; type: functional; conditions: read-out: Activity
DU-145 = assay: Cytotoxicity against human DU145 cells assessed as cell growth at 10 uM after 1 to 11 days by MTT assay; type: functional; conditions: read-out: Activity
OVCAR-3 [19] = assay: Cytotoxicity against human OVCAR-3 cells assessed as cell growth at 1 mM after 1 to 11 days by MTT assay; type: functional; conditions: read-out: Activity
COLO 205 = assay: Cytotoxicity against human COLO205 cells after 1 to 11 days by MTT assay; type: functional
NCI-H23 = assay: Cytotoxicity against human NCI-H23 cells after 1 to 11 days by MTT assay; type: functional
TK-10 [20] = assay: Cytotoxicity against human TK10 cells assessed as cell growth at 1 mM after 1 to 11 days by MTT assay; type: functional; conditions: read-out: Activity
NCI/ADR-RES [21] = assay: Cytotoxicity against human NCI/ADR-RES cells assessed as cell growth at 0.1 uM after 1 to 11 days by MTT assay; type: functional; conditions: read-out: Activity
RPMI-8226 = assay: Cytotoxicity against human RPMI8226 cells assessed as cell growth at 100 uM after 1 to 11 days by MTT assay; type: functional; conditions: read-out: Activity
HL-60(TB) [22] = assay: Cytotoxicity against human HL-60(TB) cells assessed as cell growth at 100 uM after 1 to 11 days by MTT assay; type: functional; conditions: read-out: Activity
[23] = read-out: LC50 (the source's name)

O=C1Nc2ncccc2/C1=C1/Nc2ccccc2/C1=N\O showed a growth at 10 µM (HCC 2998) of 88%, a growth at 1 µM (ACHN [1]) of 95% and a growth at 0.1 µM (SN12C) of 93%. For the same compound, the growth at 10 µM (HL-60(TB) [2]) was 80%, the GI50 (SW-620) was 7.45 µM and the TGI (SW-620) was > 100 µM. For the same compound, the CC50 (SW-620; [23]) was > 100 µM, the growth at 0.1 µM (K562) was 88% and the growth at 0.1 µM (IGROV-1 [3]) was 102%. The growth at 1 µM (LOX IMVI [4]) was 97%, the growth at 1 µM [5] was 98% and the GI50 (SF-539) was > 100 µM. The TGI (SF-539) was > 100 µM, the CC50 (SF-539; [23]) was > 100 µM and the growth at 10 µM (OVCAR-3 [6]) was 80%. The inhibition [7] was 81%, the growth at 0.1 µM (SK-MEL-5) was 104% and the growth at 1000 µM (PC-3) was 45%. For the same compound, the GI50 (SK-MEL-28) was 32.8 µM, the TGI (SK-MEL-28) was > 100 µM and the CC50 (SK-MEL-28; [23]) was > 100 µM. For the same compound, the growth at 10 µM (OVCAR-4 [8]) was 96%, the growth at 1000 µM (HOP-62) was 74% and the GI50 (NCI-H226) was 1.14 µM. For the same compound, the TGI (NCI-H226) was > 100 µM, the CC50 (NCI-H226; [23]) was > 100 µM and the growth at 100 µM (SNB-75) was 14%. The GI50 (NCI/ADR-RES [9]) was > 100 µM, the TGI (NCI/ADR-RES [9]) was > 100 µM and the CC50 (NCI/ADR-RES [9]; [23]) was > 100 µM. The growth at 10 µM (LOX IMVI [10]) was 86%, the growth at 10 µM (IGROV-1 [11]) was 60% and the growth at 10 µM (MOLT-4) was 70%. It also gave a growth at 1000 µM (OVCAR-8) of 52%, a growth at 100 µM (IGROV-1 [12]) of 13% and a growth at 100 µM (OVCAR-4 [13]) of 48%. It also gave a growth at 0.1 µM (OVCAR-5) of 89%, a growth at 100 µM (SNB-19) of 78% and a growth at 0.1 µM (OVCAR-3 [14]) of 99%. For the same compound, the growth at 0.1 µM (RXF 393) was 93%, the growth at 100 µM (TK-10 [15]) was 49% and the growth at 100 µM (ACHN [16]) was 21%. It also gave a growth at 10 µM (A498) of 63%, a growth at 1 µM (IGROV-1 [17]) of 84% and a growth at 100 µM (OVCAR-3 [18]) of 51%. The growth at 10 µM (DU-145) was 84%, the growth at 1000 µM (OVCAR-3 [19]) was 51% and the GI50 (COLO 205) was 1.73 µM. For the same compound, the TGI (COLO 205) was > 100 µM, the CC50 (COLO 205; [23]) was > 100 µM and the GI50 (NCI-H23) was > 100 µM. The TGI (NCI-H23) was > 100 µM, the CC50 (NCI-H23; [23]) was > 100 µM and the growth at 1000 µM (TK-10 [20]) was 14%. The growth at 0.1 µM (NCI/ADR-RES [21]) was 99%, the growth at 100 µM (RPMI-8226) was 2% and the growth at 100 µM (HL-60(TB) [22]) was 38%.
